Measured values: PMC5905968, “Evaluation of the fusion inhibitor P3 peptide as a potential microbicide to prevent HIV transmission in women” (PLoS ONE, 2018)

Tests used:
E. coli ATCC 10536 = assay: Anti-bacterial activity, MIC by agar diffusion; type: cell-based; conditions: disks, Mueller-Hinton agar, 37°C, maximum concentration tested 228.4 μM
Procedure: (§1) Anti-bacterial activity of P3 was determined according to CLSI guidelines. The following bacteria were used: reference strains E. coli ATCC 10536, Staphylococcus aureus ATCC 6538, Bacillus subtilis ATCC 6633 and Enterococcus faecalis ATCC 29212; clinical strains of E. coli and Pseudomonas aeruginosa isolated in our laboratory; and strains of Lactobacillus rhamnosus and Lactobacillus plantarum also isolated in our laboratory. The Minimum Inhibitory Concentration (MIC) was determined by the agar diffusion method, in plates of Mueller-Hinton agar or Rogosa agar (for Lactobacilli). Briefly, 10^8cfu/ml bacterial suspensions were prepared in sterile water and spread in the culture media. Sterile disks containing different concentrations of P3 were placed on the inoculated surface. Plates were incubated at 37°C for 24h or 48h. Lactobacilli were incubated at microaerophilic conditions. A negative control made of sterile water was used. Disks of amoxicillin and imipenem were used as positive controls.

[1] = tested on: Pseudomonas aeruginosa (clinical strain); assay: Anti-bacterial activity, MIC by agar diffusion; type: cell-based; conditions: disks, Mueller-Hinton agar, 37°C, maximum concentration tested 228.4 μM
Procedure: as §1

Lactobacillus rhamnosus = assay: Anti-bacterial activity, MIC by agar diffusion; type: cell-based; conditions: disks, Rogosa agar, 37°C, microaerophilic, maximum concentration tested 228.4 μM
Procedure: as §1

[2] = tested on: Staphylococcus aureus ATCC 6538; assay: Anti-bacterial activity, MIC by agar diffusion; type: cell-based; conditions: disks, Mueller-Hinton agar, 37°C, maximum concentration tested 228.4 μM
Procedure: as §1

Lactobacillus plantarum = assay: Anti-bacterial activity, MIC by agar diffusion; type: cell-based; conditions: disks, Rogosa agar, 37°C, microaerophilic, maximum concentration tested 228.4 μM
Procedure: as §1

[3] = tested on: Enterococcus faecalis ATCC 29212; assay: Anti-bacterial activity, MIC by agar diffusion; type: cell-based; conditions: disks, Mueller-Hinton agar, 37°C, maximum concentration tested 228.4 μM
Procedure: as §1

[4] = tested on: Bacillus subtilis ATCC 6633; assay: Anti-bacterial activity, MIC by agar diffusion; type: cell-based; conditions: disks, Mueller-Hinton agar, 37°C, maximum concentration tested 228.4 μM
Procedure: as §1

[5] = tested on: E. coli (clinical strain); assay: Anti-bacterial activity, MIC by agar diffusion; type: cell-based; conditions: disks, Mueller-Hinton agar, 37°C, maximum concentration tested 228.4 μM
Procedure: as §1

HIV-1 isolate 93AOHDC250 = assay: Single-round viral infectivity assay, luciferase, TZM-bl reporter cells, after exposure of P3 to fluids, temperature, pH or H2O2
Procedure: The antiviral activity of P3 in the presence of SP and VFS was determined with a single-round viral infectivity assay using TZM-bl reporter cells, as previously described. Briefly, TZM-bl cells were plated (1x10^4 cells/well) in a 96-plate and incubated overnight at 37°C with 5% CO2. […] The same procedure was done with VFS and with SP+VFS. Cells were then infected with 200 TCID50 (in 100 μl) of HIV-1 isolate 93AOHDC250 and incubated for 48h before measuring the luciferase activity with the Pierce Firefly Luc One-Step Glow Assay Kit (ThermoFisher Scientific, Rockford, USA) according to the manufacturer’s instructions. At least two independent experiments, each in triplicate, were performed for each antiviral activity analysis. For these experiments, the positive control was made of cells plus virus, the negative control was made of cells plus complete growth medium, compound controls were made of cells plus P3 alone or P3 in SP, VFS or SP+VPS, and the biological fluids control were made of cells plus SP, VFS or SP+VFS.
The long-term stability of P3 was evaluated in the presence of SP [0.5% or 1% (v/v)] or VFS at 37°C for a period of 24h, 48h and 1 week before performing the assay, as described above. In all cases, P3 was considered stable in the presence of biologic fluids if its antiviral activity was unaffected by SP, VFS and SP+VFS. In addition, peptide concentration was determined after exposure to the above conditions by mass spectrometry as described below.
The stability and antiviral activity of P3 were evaluated at different conditions of temperature, pH and oxidation. […] The antiviral activity of each peptide solution was then evaluated with a single-round viral infectivity assay using TZM-bl reporter cells and HIV-1 isolate 93AOHDC250, as described above.
The effect of pH on P3 was evaluated at pH ranging from 4 to 8. Briefly, IC50 peptide solutions were prepared in GM and the pH was adjusted using HCl (1M) or NaOH (1M). Each solution was then incubated at 37°C for 2, 8 and 24 hours and their antiviral activity was determined in a single-round viral infectivity assay using a luciferase reporter gene assay in TZM-bl cells as described above.
To test for oxidation by H2O2, P3 solutions at concentrations corresponding to the IC50 and IC90 were treated with H2O2 at biologic relevant concentrations (1.2μM and 5μM). The antiviral activity of the different solutions was determined in a single-round viral infectivity assay using a luciferase reporter gene assay in TZM-bl cells, as described above.
Controls for these experiments were the following: positive controls (cells plus virus), negative controls (cells plus complete growth medium); pH compound controls (cells plus P3 in different pH growth medium); H2O2 compound controls (cells plus P3 in H2O2, 1.2μM or 5μM); cell controls were also performed under the same incubation conditions. H2O2 and pH cytotoxicity were assessed in TZM-bl cells using alamarBlue assay. In all cases, P3 was considered stable when its antiviral activity was unaffected under the different conditions tested.

Compound CC[C@H](C)[C@H](NC(=O)[C@H](CC(N)=O)NC(=O)[C@H](C)NC(=O)[C@H](CCC(=O)O)NC(=O)[C@H](CC(C)C)NC(=O)[C@H](Cc1ccc(O)cc1)NC(=O)[C@H](CCCNC(=N)N)NC(=O)[C@@H](NC(=O)[C@H](CCC(N)=O)NC(=O)[C@H](CCC(N)=O)NC(=O)[C@H](CCC(=O)O)NC(=O)[C@H](Cc1c[nH]c2ccccc12)NC(=O)[C@H](CCC(=O)O)NC(=O)[C@H](CCC(N)=O)NC(=O)[C@H](Cc1c[nH]c2ccccc12)NC(C)=O)C(C)C)C(=O)N[C@@H](CO)C(=O)N[C@@H](CCC(N)=O)C(=O)N[C@@H](CCCNC(=N)N)C(=O)N[C@@H](CC(C)C)C(=O)N[C@@H](CCC(=O)O)C(=O)N[C@@H](CCC(N)=O)C(=O)N[C@@H](C)C(=O)N[C@@H](CCC(N)=O)C(=O)N[C@H](C(=O)N[C@@H](CCC(N)=O)C(=O)N[C@@H](CCC(N)=O)C(=O)N[C@@H](CCC(=O)O)C(=O)N[C@@H](CCCCN)C(=O)N[C@@H](CC(N)=O)C(=O)N[C@@H](CCSC)C(=O)N[C@@H](Cc1ccc(O)cc1)C(=O)N[C@@H](CCC(=O)O)C(=O)N[C@@H](CC(C)C)C(=O)N[C@@H](CCC(N)=O)C(N)=O)[C@@H](C)CC [P3] has an MIC (E. coli ATCC 10536) of over 228.4 µM, an MIC [1] of over 228.4 µM and an MIC (Lactobacillus rhamnosus) of over 228.4 µM. The MIC [2] was over 228.4 µM, the MIC (Lactobacillus plantarum) was over 228.4 µM and the MIC [3] was over 228.4 µM. The MIC [4] was over 228.4 µM, the MIC [5] was over 228.4 µM and the “antiviral activity in the presence of SP 1%” value (HIV-1 isolate 93AOHDC250; P3 366.4 nM, seminal plasma 1% (v/v), 37°C, 1 week) was “significant decrease of antiviral activity”. For the same compound, the “antiviral activity in the presence of human fluids” value (HIV-1 isolate 93AOHDC250; P3 366.4 nM, SP 0.5% or 1% (v/v), VFS, SP+VFS, 37°C, up to 1 week of contact, at least two experiments in triplicate) was “unaffected”, the “time of full antiviral activity in the presence of human biological fluids” value (HIV-1 isolate 93AOHDC250; P3 366.4 nM, SP 0.5% or 1%, VFS, 37°C) was “at least 48 h” and the mean viral inhibition (HIV-1 isolate 93AOHDC250; P3 at IC90 (366.4 nM) in growth medium, incubated 1 week at 25°C before assay) was 99%. For the same compound, the mean viral inhibition (HIV-1 isolate 93AOHDC250; P3 at IC90 (366.4 nM) in growth medium, incubated 1 week at 37°C before assay) was 99%, the mean viral inhibition (HIV-1 isolate 93AOHDC250; P3 at IC90 (366.4 nM) in growth medium, incubated 1 week at 65°C before assay) was 100% and the mean viral inhibition (HIV-1 isolate 93AOHDC250; control: P3 at IC90 (366.4 nM), antiviral activity determined after 48h at 37°C) was 99%.
